The source of these data is patent US10800784B2, “Nitrogen-containing heterocyclic amide compound and pharmaceutical use thereof” (Japan Tobacco Inc., priority 2018, dated 2020).

The target of one experiment is human PDHK2 (hPDHK2) (Homo sapiens (Human), UniProt Q15119). The experiment is described as follows: Inhibitory action of PDHK2 activity in vitro (residual PDH activity after PDHK reaction). The experiment is classed as biochemical. As to conditions: PDH/hPDHK2 complex solution, PDHK reaction at room temperature for 45 min, NADH absorbance at 340 nm; read-out: kPDK2 IC50. An outline of the steps:
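Indirect assay: FLAG-tagged hPDHK2 (0.5 μg/mL) precomplexed overnight at 4 °C with PDH (0.025 U/mL), then kinase reaction with compound and ATP 45 min at room temperature, pH 7.0 MOPS buffer. Residual PDH activity measured after 90 min with pyruvate, CoA, NAD, TPP as NADH absorbance at 340 nm, corrected for compound effect on PDH-only blank.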

The next experiment has as its target human PDHK1 (hPDHK1) (Homo sapiens (Human), UniProt Q15118). The experiment is described as follows: Inhibitory action of PDHK1 activity in vitro (residual PDH activity after PDHK reaction). The experiment is classed as biochemical. As to conditions: for IC50: PDH/hPDHK1 complex solution, PDHK reaction at room temperature for 45 min, NADH absorbance at 340 nm, read-out: hPDK1 IC50. An outline of the steps:
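N-FLAG hPDHK1 (E. coli-expressed, 0.5 μg/mL) precomplexed overnight at 4 °C with porcine heart PDH (0.025 U/mL), then reacted 45 min at room temperature with compound and ATP (0.353 μmol/L as added) in MOPS pH 7.0 buffer. Residual PDH activity after 90 min with pyruvate, CoA, NAD, TPP read as NADH at 340 nm.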

A value given as a limit tells only on which side of the number the result lay.

As a reminder, the IC50 is the concentration that inhibits the measured activity by half.

Sequence of human PDHK1 (hPDHK1) (Q15118 29-436): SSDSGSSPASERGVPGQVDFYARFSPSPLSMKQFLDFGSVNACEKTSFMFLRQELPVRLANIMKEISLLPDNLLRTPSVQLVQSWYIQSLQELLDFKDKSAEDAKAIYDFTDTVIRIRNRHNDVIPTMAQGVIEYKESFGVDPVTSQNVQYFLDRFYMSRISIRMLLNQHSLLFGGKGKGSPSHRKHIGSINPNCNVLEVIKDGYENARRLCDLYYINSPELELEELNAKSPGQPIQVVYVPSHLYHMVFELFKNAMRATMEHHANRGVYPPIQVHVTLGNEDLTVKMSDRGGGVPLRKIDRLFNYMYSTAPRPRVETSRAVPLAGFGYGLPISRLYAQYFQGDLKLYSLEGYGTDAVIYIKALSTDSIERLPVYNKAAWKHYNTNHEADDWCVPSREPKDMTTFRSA

`C[C@H]1CN(C(=O)c2c(C#N)c(C3CC3)nn2C)Cc2onc([C@@](C)(O)C(F)(F)F)c21` [Example 117]: the IC50 on human PDHK2 (hPDHK2) is 8 nM; on human PDHK1 (hPDHK1), 6 nM.
For `C[C@H]1CN(C(=O)c2cncc(-c3ccc(C#N)cc3F)c2)Cc2cnc([C@@](C)(O)C(F)(F)F)n21` [Example 71], the IC50 was 7 nM on human PDHK2 (hPDHK2) and 4 nM at human PDHK1 (hPDHK1).
For `C[C@H]1CN(C(=O)[C@@H]2c3ccccc3CCN2C)Cc2onc([C@@](C)(O)C(F)(F)F)c21` [Example 106], the IC50 at human PDHK2 (hPDHK2) was 4 nM; on human PDHK1 (hPDHK1) it was below 3 nM. In addition, the inhibition at 0.003 µM on human PDHK1 (hPDHK1) (at 3 nmol/L, shown when IC50 value could not be calculated, read-out: hPDHK1 inhibitory rate at the lowest concentration of the test compound) was 61%.
Take `C[C@H]1CN(C(=O)c2c3c(F)cc(F)cc3nn2C)Cc2cnc([C@@](C)(O)C(F)(F)F)n21` [Example 6]: the IC50 at human PDHK2 (hPDHK2) and at human PDHK1 (hPDHK1) was 11 nM throughout.
With `C[C@H]1CN(C(=O)C2(C)CN(c3ccc(F)cn3)C2)Cc2cnc([C@@](C)(O)C(F)(F)F)n21` [Example 90], the concentration for half-maximal inhibition (IC50) on human PDHK2 (hPDHK2) amounted to 45 nM; on human PDHK1 (hPDHK1) it was 66 nM.
`C[C@H]1CN(C(=O)c2cc(-c3ccc(Cl)cn3)nn2C)Cc2cnc([C@@](C)(O)C(F)(F)F)n21` [Example 66]: the results for the IC50 on human PDHK2 (hPDHK2) and on human PDHK1 (hPDHK1) were 6 nM and 4 nM, respectively.
For the molecule `C[C@H]1CN(C(=O)c2cc(-c3ccc(S(C)(=O)=O)cc3)nn2C)Cc2cnc([C@@](C)(O)C(F)(F)F)n21` [Example 44], the IC50 on human PDHK2 (hPDHK2) was determined as 7 nM; at human PDHK1 (hPDHK1) it was 5 nM.
In the case of `C[C@H]1CN(C(=O)c2ccc(F)c(-c3ccncc3C#N)c2)Cc2cnc([C@@](C)(O)C(F)(F)F)n21` [Example 84], the results for the IC50 on human PDHK2 (hPDHK2) and at human PDHK1 (hPDHK1) were 11 nM and 5 nM, respectively.
As for `C[C@H]1CN(C(=O)c2cc(-c3ccc(C#N)cn3)nn2C)Cc2cnc([C@@](C)(O)C(F)(F)F)n21` [Example 73, 6-(1-methyl-5-((S)-5-methyl-3-((R)-1,1,1-trifluoro-2-hydroxypropan-2-yl)-5,6,7,8-tetrahydroimidazo[1,5-a]pyrazine-7-carbonyl)-1H-pyrazol-3-yl)nicotinonitrile], the IC50 was 7 nM on human PDHK2 (hPDHK2) and 6 nM at human PDHK1 (hPDHK1).
With `C[C@H]1CN(C(=O)c2cc(-c3ccc(C#N)cc3)nn2C)Cc2cnc([C@@](C)(O)C(F)(F)F)n21` [Example 31], the IC50 was determined as 11 nM at human PDHK2 (hPDHK2) and 9 nM at human PDHK1 (hPDHK1).
On to `Cc1nc(-c2ccc(C#N)cc2)oc1C(=O)N1Cc2cnc([C@@](C)(O)C(F)(F)F)n2[C@@H](C)C1` [Example 46], for which the IC50 on human PDHK2 (hPDHK2) and on human PDHK1 (hPDHK1) was 5 nM throughout.
As to `C[C@H]1CN(C(=O)c2nn(C)c3cc(F)c(F)cc23)Cc2cnc([C@@](C)(O)C(F)(F)F)n21` [Example 10, (5,6-difluoro-1-methyl-1H-indazol-3-yl)((S)-5-methyl-3-((R)-1,1,1-trifluoro-2-hydroxypropan-2-yl)-5,6-dihydroimidazo[1,5-a]pyrazin-7(8H)-yl)methanone], the IC50 on human PDHK2 (hPDHK2) came to 13 nM; at human PDHK1 (hPDHK1) it was 9 nM.
For `C[C@H]1CN(C(=O)C(C)(C)c2ccc(C(=O)O)c(C3CC3)c2)Cc2onc([C@@](C)(O)C(F)(F)F)c21` [Example 116], the IC50 on human PDHK2 (hPDHK2) was 32 nM; on human PDHK1 (hPDHK1), 17 nM.
